Measured values: patent US9023985B2, “Glucagon composition” (Arecor Ltd., priority 2010, dated 2015)

Columns and labels:
[1] = Visual assessment of glucagon formulations with different tonicity modifiers, 50° C. incubation; conditions: glucagon 1 mg/ml, 5 mM acetate, 0.075% benzethonium chloride, pH 5.5
Method: In some cases, the composition contained a specified concentration of an antioxidant. The effect of the nature and the concentration of the tonicity modifier on the physical stability (i.e., gel formation and/or aggregation) was determined by visual assessment following storage.
In the first experiment, the effects of mannitol and 1,2-propanediol as tonicity modifiers modifiers were compared at 50° C.
In another experiment, the effects of mannitol and glycerol as tonicity modifiers were compared at 50° C.
In another experiment, the effects of mannitol and trehalose as tonicity modifiers were compared at 50° C.

[2] = Stability of glucagon in surfactant solutions at room temperature (RP-HPLC, gel formation); assay type: physicochemical; conditions: for Changes in the native form of glucagon (RP-HPLC) / Size of the native glucagon peak (RP-HPLC): glucagon dissolved with the surfactant, incubation at room temperature for days
Source text: […]. In contrast, the size of the native peak diminished in the case of CHAPS to <10%) and in the case of TWEEN® 20 (to about 60%).
Formulating at pH>8 minimized the gel formation.

[3] = Visual assessment of glucagon formulations with and without phenol, 50° C. incubation; assay type: physicochemical; conditions: glucagon 1 mg/ml
Method: The pH of both formulations was adjusted to 5.5. […] The appearance of all formulations was noted shortly after preparation and then following storage at 50° C. for specified periods of time.

[4] = 0 days, 1.3 mM butylated hydroxytoluene
[5] = 6 weeks, 1.3 mM butylated hydroxytoluene
[6] = 6 days, 1.3 mM butylated hydroxytoluene
[7] = 50° C. for up to 6 weeks, 5 mM methionine

Compound: CC(O)CO (stereo not drawn) [1,2-propanediol]
- Onset of aggregation and gel formation compared with mannitol ([1]; 50° C.): much earlier onset of aggregation and gel formation

Compound: CC(C)(C)CC(C)(C)c1ccc(OCCOCC[N+](C)(C)Cc2ccccc2)cc1 [Benzethonium chloride]
- Changes in the native form of glucagon (RP-HPLC) [2]: no significant changes

Compound: C[C@H](CCC(=O)NCCC[N+](C)(C)CCCS(=O)(=O)[O-])[C@H]1CC[C@H]2[C@@H]3[C@H](O)C[C@@H]4C[C@H](O)CC[C@]4(C)[C@H]3C[C@H](O)[C@]12C [CHAPS]
- Size of the native glucagon peak (RP-HPLC) [2]: < 10%

Compound: CCCCCCCCCCCCCCCC[N+](C)(C)C.[Br-] [Cetrimide, cetyl trimethylammonium bromide]
- Changes in the native form of glucagon (RP-HPLC) [2]: no significant changes

Compound: OCC(O)CO [Glycerol (250 mM), Glycerol]
- Visual assessment (50° C. incubation), extent of visible precipitation [1, 4]: 1
- Visual assessment (50° C. incubation), extent of visible precipitation [1, 5]: 2
- Visual appearance after incubation ([1]; 50° C. for 6 weeks, 1.3 mM butylated hydroxytoluene): signs of precipitation
- Visual assessment (50° C. incubation), extent of visible precipitation [1, 6]: 1

Compound: OC[C@@H](O)[C@@H](O)[C@H](O)[C@H](O)CO [Mannitol (250 mM), Mannitol]
- Visual assessment (50° C. incubation), extent of visible precipitation [1, 4]: 1
- Visual assessment (50° C. incubation), extent of visible precipitation [1, 5]: 1
- Visual appearance after incubation [1, 7]: remained as a clear liquid
- Visual assessment (50° C. incubation), extent of visible precipitation [1, 6]: 1

Compound: Oc1ccccc1 [phenol]
- Gel formation and/or aggregation on incubation [3]: delay aggregation and gel formation considerably farther

Compound: OC[C@H]1O[C@H](O[C@H]2O[C@H](CO)[C@@H](O)[C@H](O)[C@H]2O)[C@H](O)[C@@H](O)[C@@H]1O [trehalose (250 and 500 mM), trehalose]
- Visual appearance after incubation [1, 7]: remained as a clear liquid

Compound: Benzalkonium chloride
- Changes in the native form of glucagon (RP-HPLC) [2]: no significant changes

Compound: Sodium deoxycholate
- Changes in the native form of glucagon (RP-HPLC) [2]: no significant changes
- Gel formation of dissolved glucagon ([2]; prepared at pH 7.5, incubation at room temperature): tendency to form gels

Compound: TWEEN ® 20
- Size of the native glucagon peak (RP-HPLC) [2]: about 60%
